Test systems include SK-MEL-5; NCI-H226; OVCAR-8; SW-620; SK-OV-3; SNB-75; EKVX; COLO 205; SN12C; SF-268; TK-10; UACC-62; OVCAR-3; SNB-19; OVCAR-5; CCRF-CEM.
Holding throughout (test): DTP human tumour cell line panel, 48 h

Each structure is given as a SMILES string.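 All cell lines were grown in 96-well plates and treated with compound for 48 hours. Here, GI50 denotes the concentration required for 50% inhibition of growth.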 The source made the active and inactive calls. Rule as the data show it: active = GI50 up to about 1.1 µM and inactive = higher.

As a reminder, the GI50 is the concentration that inhibits growth by half. With `CC1CC2C3CCC4=CC(=O)C=CC4(C)C3(F)C(O)CC2(C)C1(O)C(=O)CO.Cc1cc(NS(=O)(=O)c2ccc(/N=N\c3cc(/N=N/c4ccc(S(=O)(=O)Nc5cc(C)nc(C)n5)cc4)c(OC(=O)C(Cl)Cl)c4cccc(NC(=O)C(Cl)Cl)c34)cc2)nc(C)n1`, the GI50 with SK-MEL-5 was 2.97 µM (inactive); in the assay on NCI-H226 it was 22.2 µM (inactive); in the assay on OVCAR-8, 22.9 µM (inactive); in the assay with SW-620 it was 20.8 µM (inactive); in the assay on SK-OV-3, > 100 µM (inactive); in the assay with SNB-75, 42.8 µM (inactive). In addition, the GI50 was 26.2 µM (inactive) with EKVX; 28.2 µM (inactive) in the assay with COLO 205; 12.6 µM (inactive) in the assay with SN12C; 26.4 µM (inactive) in the assay with SF-268; 42.7 µM (inactive) in the assay with TK-10; 23.9 µM (inactive) with UACC-62. Moreover, the GI50 in the assay on OVCAR-3 was 18.6 µM (inactive); in the assay on SNB-19, 16.5 µM (inactive); in the assay on OVCAR-5, 16.6 µM (inactive).

For `CCN(CC)c1c(C(=O)/C=C/c2ccccc2)c(-c2ccccc2)nn(C)c1=O`, the GI50 is 5.02 µM (inactive) in the assay with SK-MEL-5; 93.1 µM (inactive) in the assay with NCI-H226; 2.2 µM (inactive) in the assay on CCRF-CEM; 5.37 µM (inactive) with OVCAR-8; > 100 µM (inactive) with SK-OV-3; 8.3 µM (inactive) in the assay on EKVX. Moreover, the GI50 in the assay on COLO 205 is 5.81 µM (inactive); in the assay on SN12C, 4.68 µM (inactive); with SF-268, 5.98 µM (inactive); in the assay on TK-10 it was > 100 µM (inactive); with UACC-62, 5.41 µM (inactive); in the assay with SNB-19, 29.4 µM (inactive). Also, the GI50 in the assay on OVCAR-5 was 6.53 µM (inactive).

As to `CCC1OCCN1C(C)C` (centres undefined), the GI50 in the assay on SK-MEL-5 was 70.8 µM (inactive); with CCRF-CEM, > 100 µM (inactive); in the assay on OVCAR-8, > 100 µM (inactive); in the assay with SW-620 it was > 100 µM (inactive); in the assay with SK-OV-3, > 100 µM (inactive); with EKVX it was 26.2 µM (inactive). For the same molecule, the GI50 was > 100 µM (inactive) with COLO 205; > 100 µM (inactive) with SN12C; > 100 µM (inactive) with SF-268; 42 µM (inactive) in the assay with TK-10; 59 µM (inactive) in the assay with UACC-62; > 100 µM (inactive) in the assay with SNB-19. Moreover, the GI50 with OVCAR-5 was > 100 µM (inactive).

Consider `CCOC(=O)C1=C(NC(C)(C)C)OCC1=O`, for which the GI50 in the assay with NCI-H226, with OVCAR-8, in the assay on SW-620, with SK-OV-3, in the assay on SNB-75 and in the assay with COLO 205 was > 100 µM (inactive) throughout. Moreover, the GI50 in the assay with SN12C, in the assay with SF-268, in the assay on TK-10, in the assay with UACC-62, in the assay on OVCAR-3 and with SNB-19 was > 100 µM (inactive) each time. In addition, the GI50 with OVCAR-5 is > 100 µM (inactive).

As to `C=C1C2CCCC1C1(S(C)(=O)=O)CCCCC21O` (centres undefined), the GI50 in the assay with SK-MEL-5, in the assay on NCI-H226, in the assay with OVCAR-8, with SW-620, in the assay on SK-OV-3 and with SNB-75 was > 100 µM (inactive) in each case. Besides, the GI50 with EKVX, in the assay on COLO 205, in the assay with SN12C, with TK-10, in the assay on UACC-62 and with OVCAR-3 was > 100 µM (inactive) in each case. Further, the GI50 with SNB-19 and in the assay on OVCAR-5 was > 100 µM (inactive) each time.

As for `COC(=O)[C@@]12C=CC(=O)[C@H]3C[C@@H](C(C(C)C)C1)[C@]32OC` (some centres undefined), the GI50 in the assay with SK-MEL-5, in the assay with CCRF-CEM, in the assay with OVCAR-8, with SW-620, in the assay with SK-OV-3 and in the assay with SNB-75 was > 100 µM (inactive) in each case. The GI50 in the assay with EKVX, in the assay with COLO 205, in the assay on SN12C, with SF-268, in the assay on TK-10 and in the assay with UACC-62 was > 100 µM (inactive) each time. For the same molecule, the GI50 in the assay with OVCAR-3, with SNB-19 and in the assay on OVCAR-5 was > 100 µM (inactive) throughout.

For `N#Cc1ccccc1Nc1ccccc1S`, the GI50 in the assay on SK-MEL-5 was 17.9 µM (inactive); in the assay with NCI-H226 it was 22.4 µM (inactive); in the assay on CCRF-CEM, 6.68 µM (inactive); with OVCAR-8, 31.6 µM (inactive); in the assay on SW-620 it was 22.1 µM (inactive); in the assay on SK-OV-3 it was 57.1 µM (inactive). Moreover, the GI50 with EKVX is 57.7 µM (inactive); in the assay on COLO 205 it was > 100 µM (inactive); with SN12C, 31 µM (inactive); in the assay on SF-268 it was 31.3 µM (inactive); in the assay with TK-10, > 100 µM (inactive); in the assay on UACC-62, 19.1 µM (inactive). Further, the GI50 in the assay on SNB-19 was 22.5 µM (inactive); in the assay on OVCAR-5 it was 29.4 µM (inactive).

As for `CCN(CC)CCNc1ccc2nc(C)n3c4ccc(O)cc4c(=O)c1c23`, the GI50 in the assay with SK-MEL-5 is 2.01 µM (inactive); with NCI-H226, 0.16 µM (active); with OVCAR-8 it was 0.371 µM (active); in the assay with SW-620, 0.596 µM (active); in the assay on SK-OV-3, 1.14 µM (inactive); in the assay with SNB-75, 1.09 µM (active). In addition, the GI50 with SN12C was 0.618 µM (active); in the assay on SF-268 it was 0.481 µM (active); in the assay on OVCAR-3 it was 1.97 µM (inactive); with SNB-19, 0.546 µM (active); in the assay with OVCAR-5, 0.479 µM (active).

As to `CC(C)(Oc1ccc(C(=O)c2ccc(Cl)cc2)cc1Cl)C(=O)N1CCN(c2ccccc2)CC1`, the GI50 was 72.8 µM (inactive) in the assay on SK-MEL-5; > 100 µM (inactive) in the assay with CCRF-CEM; > 100 µM (inactive) in the assay with OVCAR-8; > 100 µM (inactive) in the assay with SW-620; > 100 µM (inactive) with SK-OV-3; > 100 µM (inactive) in the assay on EKVX. Also, the GI50 in the assay on SF-268, with TK-10, with UACC-62, in the assay on OVCAR-3, in the assay with SNB-19 and with OVCAR-5 was > 100 µM (inactive) in each case.

Regarding `Cc1ccc(C(=O)NC2CCCCC2)cc1/N=N/N(C)C`, the GI50 in the assay on SK-MEL-5 is > 100 µM (inactive); in the assay on OVCAR-8 it was > 100 µM (inactive); with SW-620, > 100 µM (inactive); in the assay with EKVX, > 100 µM (inactive); in the assay on SN12C it was > 100 µM (inactive); in the assay with SF-268, 44.9 µM (inactive). Besides, the GI50 with TK-10, in the assay on UACC-62, in the assay with OVCAR-3 and in the assay on SNB-19 was > 100 µM (inactive) in each case.

For `CC(C)c1cccc(C(C)C)c1NC(=O)/C(Cc1nc2ccc(Cl)cc2nc1O)=N\NC(=O)C[N+](C)(C)C`, the GI50 with SK-MEL-5 was > 100 µM (inactive); in the assay on CCRF-CEM it was > 100 µM (inactive); in the assay on OVCAR-8, > 100 µM (inactive); in the assay with SW-620, > 100 µM (inactive); in the assay with SK-OV-3, > 100 µM (inactive); in the assay with EKVX it was 4.22 µM (inactive). Moreover, the GI50 in the assay on COLO 205, in the assay with SN12C, in the assay with SF-268, in the assay on TK-10, in the assay with UACC-62 and in the assay with OVCAR-3 was > 100 µM (inactive) each time. In addition, the GI50 in the assay on SNB-19 and with OVCAR-5 was > 100 µM (inactive) each time.

Source of the values: ChEMBL document CHEMBL1201862, “PubChem BioAssay data set” (2004).
